Patent US20220233512A1, “INHIBITING AN IMMUNE RESPONSE MEDIATED BY ONE OR MORE OF TLR2, RAGE, CCR5, CXCR4 AND CD4” (priority 2020, published 2022)

Biological target: T1, mu opiate receptor (MOR) (Rattus norvegicus, UniProt P33535)
T1 construct: from tissue; host or cells: striatum (membrane preparation)
Test: MOR agonist activity using [35S]GTPgS binding assay in striatal membranes
Format: biochemical
Set-up: MOR agonist activity (preliminary study): unit of the concentration uncertain
Conditions: for MOR agonist activity (preliminary study): average of two runs
Experimental: To assess the mu opiate receptor (MOR) agonist activity of positive compounds from the FLNA screening, compounds were tested in a [^35S]GTPgS binding assay using striatal membranes. […] This assay measures a functional consequence of receptor occupancy at one of the earliest receptor-mediated events. The assay permits for traditional pharmacological parameters of potency, efficacy and antagonist affinity, with the advantage that agonist measures are not subjected to amplification or other modulation that may occur when analyzing parameters further downstream of the receptor.
Thus, striatal tissue was homogenized in 10 volumes of ice cold 25 mM HEPES buffer, pH 7.4, which contained 1 mM EGTA, 100 mM sucrose, 50 mg/ml leupeptin, 0.04 mM PMSF, 2 mg/ml soybean trypsin inhibitor and 0.2% 2-mercaptoethanol. The homogenates were centrifuged at 800×g for 5 minutes and the supernatants were centrifuged at 49,000×g for 20 minutes. The resulting pellets were suspended in 10 volume of reaction buffer, which contained 25 mM HEPES, pH 7.5, 100 mM NaCl, 50 mg/ml leupeptin, 2 mg/ml soybean trypsin inhibitor, 0.04 mM PMSF and 0.02% […].
The resultant striatal membrane preparation (200 mg) was admixed and maintained (incubated) at 30° C. for 5 minutes in reaction buffer as above that additionally contained 1 mM MgCl2 and 0.5 nM [^35S]GTPgS (0.1 mCi/assay, PerkinElmer Life and Analytical Sciences) in a total volume of 250 ml and continued for 5 minutes in the absence or presence of 0.1-10 mM of an assayed compound of interest. The reaction was terminated by dilution with 750 ml of ice-cold reaction buffer that contained 20 mM MgCl2 and 1 mM EGTA and immediate centrifugation at 16,000×g for 5 minutes.
The resulting pellet was solubilized by sonicating for 10 seconds in 0.5 ml of immunoprecipitation buffer containing 0.5% digitonin, 0.2% sodium cholate and 0.5% NP-40. Normal rabbit serum (1 ml) was added to 1 ml of lysate and incubated at 25° C. for 30 minutes. Nonspecific immune complexes were removed by incubation with 25 ml of protein A/G-conjugated agarose beads at 25° C. for 30 minutes followed by centrifugation at 5,000×g at 4° C. for 5 minutes. The supernatant was divided and separately incubated at 25° C. for 30 minutes with antibodies raised against Gao proteins (1:1,000 dilutions).
The immunocomplexes so formed were collected by incubation at 25° C. for 30 minutes with 40 ml of agarose-conjugated protein A/G beads and centrifugation at 5,000×g at 4° C. for 5 minutes. The pellet was washed and suspended in buffer containing 50 mM Tris-HCl, pH 8.0, and 1% NP-40. The radioactivity in the suspension was determined by liquid scintillation spectrometry. […] DAMGO (1 or 10 mM) was used as a positive control.

[1] = 0.1 μM compound as agonist, Series C-2 table
[2] = 1 μM compound as agonist, Series C-2 table
[3] = 0.1 (unit uncertain) compound as agonist
[4] = 1 (unit uncertain) compound as agonist
[5] = 0.1 μM compound as agonist, Series C-1 table
[6] = 1 μM compound as agonist, Series C-1 table

T1 sequence (P33535 whole entry): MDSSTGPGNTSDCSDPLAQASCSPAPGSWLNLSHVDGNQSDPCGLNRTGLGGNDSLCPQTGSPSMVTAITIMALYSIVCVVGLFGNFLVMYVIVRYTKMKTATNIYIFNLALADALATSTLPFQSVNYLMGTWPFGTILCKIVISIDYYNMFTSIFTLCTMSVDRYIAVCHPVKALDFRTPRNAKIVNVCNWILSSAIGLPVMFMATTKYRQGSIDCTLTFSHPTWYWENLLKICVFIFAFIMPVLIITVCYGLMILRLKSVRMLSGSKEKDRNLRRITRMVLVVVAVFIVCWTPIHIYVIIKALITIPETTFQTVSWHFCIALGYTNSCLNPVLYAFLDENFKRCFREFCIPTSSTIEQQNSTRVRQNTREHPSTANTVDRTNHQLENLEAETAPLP

SMILES	MOR agonist activity ([35S]GTPgS binding to Gao) [5]	MOR agonist activity ([35S]GTPgS binding to Gao) (1 μM + BFNA, Series C-1 table)	MOR agonist activity ([35S]GTPgS binding to Gao) [6]	also measured
O=C1CN(C2CCc3ccccc3C2)C2(CCN(S(=O)(=O)c3ccccc3)CC2)N1 (stereo not drawn) [C0136M/ (P5)]				MOR agonist activity ([35S]GTPgS binding to Gao) [1]: 176.8%; MOR agonist activity ([35S]GTPgS binding to Gao) (1 μM + BFNA, Series C-2 table): 74.5%; MOR agonist activity ([35S]GTPgS binding to Gao) [2]: 237.3%
O=C1CN(Cc2ccccc2)C2(CCN(C3CCCCC3)CC2)N1 [C0137M P7]				MOR agonist activity ([35S]GTPgS binding to Gao) [1]: 180.8%; MOR agonist activity ([35S]GTPgS binding to Gao) (1 μM + BFNA, Series C-2 table): 55.8%; MOR agonist activity ([35S]GTPgS binding to Gao) [2]: 193.8%
O=S(=O)(c1ccc(OC(F)(F)F)cc1)N1CCOC12CCN(CC1CC1)CC2 [Compound 4]				MOR agonist activity (preliminary study) (1 mM + bNFA): 49.5%; MOR agonist activity (preliminary study) [3]: 133.9%; MOR agonist activity (preliminary study) [4]: 165.2%
Cc1ccc(S(=O)(=O)N2CCOC23CCN(CC2CCC2)CC3)cc1 [Compound 9]				MOR agonist activity (preliminary study) (1 mM + bNFA): 56.6%; MOR agonist activity (preliminary study) [3]: 156.6%; MOR agonist activity (preliminary study) [4]: 197.2%
C=CCN1CCC2(CC1)OCCN2S(=O)(=O)c1ccc(C)cc1 [Compound 10]				MOR agonist activity (preliminary study) (1 mM + bNFA): 60.4%; MOR agonist activity (preliminary study) [3]: 163.1%; MOR agonist activity (preliminary study) [4]: 191.8%
COc1ccc(S(=O)(=O)N2CCC3(CC2)OCCN3S(=O)(=O)c2ccc(OC)cc2)cc1 [Compound 7866]	152.3%	62.4%	308.2%	
Cc1ccc(S(=O)(=O)N2CCC3(CC2)OCCN3S(=O)(=O)c2ccc(C)cc2)cc1 [Compound C0001]	129.3%	33.9%	184.3%	
COc1cccc(S(=O)(=O)N2CCC3(CC2)OCCN3S(=O)(=O)c2cccc(OC)c2)c1 [Compound C0002]	88.4%	3.9%	93.8%	
COc1ccccc1S(=O)(=O)N1CCC2(CC1)OCCN2S(=O)(=O)c1ccccc1OC [Compound C0003]	162.3%	107.7%	215.9%	
N#Cc1ccccc1S(=O)(=O)N1CCC2(CC1)OCCN2S(=O)(=O)c1ccccc1C#N [Compound C0004]	122.0%	65.8%	228.4%	
O=S(=O)(c1cccc(OC(F)(F)F)c1)N1CCC2(CC1)OCCN2S(=O)(=O)c1cccc(OC(F)(F)F)c1 [Compound C0005]	180.4%	166.4%	227.2%	
O=S(=O)(c1ccc(OC(F)(F)F)cc1)N1CCC2(CC1)OCCN2S(=O)(=O)c1ccc(OC(F)(F)F)cc1 [Compound C0006]	121.5%	4.6%	204.0%	
CC(C)c1ccc(S(=O)(=O)N2CCC3(CC2)OCCN3S(=O)(=O)c2ccc(C(C)C)cc2)cc1 [Compound C0007]	79.1%	10.9%	195.0%	
N#Cc1ccc(S(=O)(=O)N2CCC3(CC2)OCCN3S(=O)(=O)c2ccc(C#N)cc2)cc1 [Compound C0008]	71.2%	2.8%	201.6%	
CS(=O)(=O)c1ccc(S(=O)(=O)N2CCC3(CC2)OCCN3S(=O)(=O)c2ccc(S(C)(=O)=O)cc2)cc1 [Compound C0009]	146.3%	26.4%	256.2%	
O=S(=O)(c1ccc(-c2ccccc2)cc1)N1CCC2(CC1)OCCN2S(=O)(=O)c1ccc(-c2ccccc2)cc1 [Compound C0010]	136.5%	89.1%	307.0%	
CC(=O)c1ccc(S(=O)(=O)N2CCC3(CC2)OCCN3S(=O)(=O)c2ccc(C(C)=O)cc2)cc1 [Compound C0011]	217.0%	19.0%	305.0%	MOR agonist activity ([35S]GTPgS binding to Gao) [1]: 217.0%; MOR agonist activity ([35S]GTPgS binding to Gao) (1 μM + BFNA, Series C-2 table): 19.0%; MOR agonist activity ([35S]GTPgS binding to Gao) [2]: 305.0%
O=S(=O)(c1ccc(C(F)(F)F)cc1)N1CCC2(CC1)OCCN2S(=O)(=O)c1ccc(C(F)(F)F)cc1 [Compound C0012]	96.8%	184.4%	224.8%	
CC(=O)Nc1ccc(S(=O)(=O)N2CCC3(CC2)OCCN3S(=O)(=O)c2ccc(NC(C)=O)cc2)cc1 [Compound C0013]	156.6%	39.6%	301.2%	
Cc1cccc(S(=O)(=O)N2CCC3(CC2)OCCN3S(=O)(=O)c2cccc(C)c2)c1 [Compound C0014]	144.9%	76.3%	153.5%	
Cc1ccccc1S(=O)(=O)N1CCC2(CC1)OCCN2S(=O)(=O)c1ccccc1C [Compound C0015]	138.7%	126.8%	204.7%	
O=S(=O)(c1ccccc1)N1CCC2(CC1)OCCN2S(=O)(=O)c1ccccc1 [Compound C0016]	172.7%	96.7%	230.5%	
COc1ccc(C(=O)N2CCC3(CC2)OCCN3C(=O)c2ccc(OC)cc2)cc1 [Compound C0017]	153.8%	94.1%	284.5%	
COc1ccc(C(=O)N2CCC3(CC2)OCCN3S(=O)(=O)c2ccc(OC)cc2)cc1 [Compound C0018]	195.5%	106.5%	247.7%	
COc1ccc(C(=O)N2CCOC23CCN(S(=O)(=O)c2ccc(OC)cc2)CC3)cc1 [Compound C0019]	104.4%	52.8%	176.6%	
O=C(O)c1ccc(C(=O)N2CCC3(CC2)OCCN3S(=O)(=O)c2ccc(C(=O)O)cc2)cc1 [Compound C0021]	159.7%	90.7%	192.0%	
